Experimental data published in patent US12655142B2 (Merck Patent GmbH, priority 2019, dated 2026).

Legend:
[1] = target: T1, c-Kit(V654A) (Homo sapiens, UniProt P10721, V654A); assay: c-Kit(V654A) assay (33P-ATP filter binding kinase assay); assay type: biochemical; conditions: recombinant human c-Kit aa 544-end V654A, ATP 200 μM
T1 construct: recombinant human c-Kit, amino acids 544-end containing the V654A mutation; GST (N)
How it was run: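 Radiometric filter-binding read-out: substrate 33P incorporation counted by scintillation after P30 filtermat washes in 75 mM phosphoric acid and methanol. Enzyme: N-GST recombinant human c-Kit aa 544-end carrying V654A.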

[2] = target: T2, GIST430/654 cell line expressing mutated constitutively active cKIT receptor tyrosine kinase (Δ560-576 deletion and V654A point mutation) (Homo sapiens, UniProt P10721, DEL560-576/V654A); assay: Cellular cKIT autophosphorylation (phospho-Y307-cKIT, Luminex bead assay) in GIST430/654 cells; assay type: cell-based; conditions: compounds 45 min, read-out: GIST 430/654 IC50
T2 construct: endogenous in cells; host or cells: GIST430/654 cells
T2 sequence (P10721 with tags, fused parts or gaps DEL560-576/V654A): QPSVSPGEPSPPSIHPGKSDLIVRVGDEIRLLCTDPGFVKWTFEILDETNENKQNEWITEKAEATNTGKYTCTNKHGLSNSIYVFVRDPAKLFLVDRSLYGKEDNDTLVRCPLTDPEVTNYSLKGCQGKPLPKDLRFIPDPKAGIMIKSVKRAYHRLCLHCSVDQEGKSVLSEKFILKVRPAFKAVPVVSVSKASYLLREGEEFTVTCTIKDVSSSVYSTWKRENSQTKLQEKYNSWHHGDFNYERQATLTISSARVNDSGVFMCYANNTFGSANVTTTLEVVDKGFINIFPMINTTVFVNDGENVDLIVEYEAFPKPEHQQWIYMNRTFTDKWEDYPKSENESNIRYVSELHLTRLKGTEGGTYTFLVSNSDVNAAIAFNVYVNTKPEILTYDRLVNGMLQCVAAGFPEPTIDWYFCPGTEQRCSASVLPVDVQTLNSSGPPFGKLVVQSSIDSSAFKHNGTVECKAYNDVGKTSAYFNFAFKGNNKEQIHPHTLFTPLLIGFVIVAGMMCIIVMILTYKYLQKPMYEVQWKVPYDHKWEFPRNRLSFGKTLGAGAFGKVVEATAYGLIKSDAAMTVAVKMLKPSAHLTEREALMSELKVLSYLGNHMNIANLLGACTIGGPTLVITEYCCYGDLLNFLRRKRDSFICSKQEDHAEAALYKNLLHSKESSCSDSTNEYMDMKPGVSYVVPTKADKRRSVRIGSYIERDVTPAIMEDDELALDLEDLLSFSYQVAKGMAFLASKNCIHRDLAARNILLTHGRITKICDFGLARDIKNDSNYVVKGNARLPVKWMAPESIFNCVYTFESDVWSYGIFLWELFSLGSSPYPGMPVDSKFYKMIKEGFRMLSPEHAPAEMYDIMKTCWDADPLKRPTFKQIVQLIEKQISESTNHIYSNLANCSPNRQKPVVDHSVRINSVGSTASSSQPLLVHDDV
How it was run: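 Phospho-Y307 cKIT in lysates was measured on a Luminex bead assay, with total-cKIT capture overnight at 4 °C and phosphospecific plus PE secondary detection. Cells had 45 min exposure to a compound dilution series the day after plating: GIST430 (Δ560-576) or GIST430/654 (Δ560-576/V654A, grown with 100 nM imatinib). IC50 values are relative to 0.3% DMSO-treated cells.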

T1 sequence (P10721 544-976 V654A): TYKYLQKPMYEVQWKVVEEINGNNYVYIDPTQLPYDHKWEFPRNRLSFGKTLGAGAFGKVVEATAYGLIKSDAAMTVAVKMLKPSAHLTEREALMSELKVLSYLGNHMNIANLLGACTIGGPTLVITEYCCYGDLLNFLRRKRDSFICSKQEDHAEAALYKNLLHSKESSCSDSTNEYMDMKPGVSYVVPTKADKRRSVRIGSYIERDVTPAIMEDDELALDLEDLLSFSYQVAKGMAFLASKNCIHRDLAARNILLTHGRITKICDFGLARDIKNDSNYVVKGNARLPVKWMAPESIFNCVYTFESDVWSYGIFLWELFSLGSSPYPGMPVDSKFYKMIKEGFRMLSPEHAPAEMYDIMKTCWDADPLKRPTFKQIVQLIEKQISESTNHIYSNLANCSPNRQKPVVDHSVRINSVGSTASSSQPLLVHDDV

IC50 [1] [nM] | IC50 [2] [nM] | SMILES
6 | 30 | CN1CCO[C@@H](COc2ccn3c(-c4cc(NCc5ccc(-c6cnn(C)c6)cc5)ncn4)cnc3c2)C1 [A117, {6-[7-((R)-4-methyl-morpholin-2-ylmethoxy)-imidazo[1,2-a]pyridin-3-yl]-pyrimidin-4-yl}-[4-(1-methyl-1H-pyrazol-4-yl)-benzyl]-amine]
4.7 | 40 | CN1CCO[C@H](COc2ccn3c(-c4cc(NCc5ccc(-c6cnn(C)c6)cc5)ncn4)cnc3c2)C1 [A118, {6-[7-((S)-4-methyl-morpholin-2-ylmethoxy)-imidazo[1,2-a]pyridin-3-yl]-pyrimidin-4-yl}-[4-(1-methyl-1H-pyrazol-4-yl)-benzyl]-amine]
3.6 | 34 | CN1CCO[C@@H](COc2ccn3c(-c4cc(NCc5ccc(-c6cnn(C)n6)cc5)ncn4)cnc3c2)C1 [A121, {6-[7-((R)-4-methyl-morpholin-2-ylmethoxy)-imidazo[1,2-a]pyridin-3-yl]-pyrimidin-4-yl}-[4-(2-methyl-2H-[1,2,3]triazol-4-yl)-benzyl]-amine]
26 | 260 | CN1CCO[C@H](COc2ccn3c(-c4cc(NCc5ccc(-c6cnn(C)n6)cc5)ncn4)cnc3c2)C1 [A122, {6-[7-((S)-4-methyl-morpholin-2-ylmethoxy)-imidazo[1,2-a]pyridin-3-yl]-pyrimidin-4-yl}-[4-(2-methyl-2H-[1,2,3]triazol-4-yl)-benzyl]-amine]
7.4 | 53 | CN1CCOC[C@@H]1COc1ccn2c(-c3cc(NCc4ccc(-c5cnn(C)c5)cc4)ncn3)cnc2c1 [A124, N-{[4-(1-methyl-1H-pyrazol-4-yl)phenyl]methyl}-6-(7-{[(3R)-4-methylmorpholin-3-yl]methoxy}imidazo[1,2-a]pyridin-3-yl)pyrimidin-4-amine]
23 | 210 | CN1CCOC[C@H]1COc1ccn2c(-c3cc(NCc4ccc(-c5cnn(C)c5)cc4)ncn3)cnc2c1 [A125, N-{[4-(1-methyl-1H-pyrazol-4-yl)phenyl]methyl}-6-(7-{[(3S)-4-methylmorpholin-3-yl]methoxy}imidazo[1,2-a]pyridin-3-yl)pyrimidin-4-amine]
6.7 | 100 | Cn1cc(-c2ccc(CNc3cc(-c4cnc5cc(OCCN6CC7CC7C6)ccn45)ncn3)cc2)cn1 (stereo not drawn) [A127, (6-{7-[2-(3-aza-bicyclo[3.1.0]hex-3-yl)-ethoxy]-imidazo[1,2-a]pyridin-3-yl}-pyrimidin-4-yl)-[4-(1-methyl-1H-pyrazol-4-yl)-benzyl]-amine]
6.1 | 62 | CN1CCC(CCOc2ccn3c(-c4cc(NCc5ccc(-c6cnn(C)c6)cc5)ncn4)cnc3c2)CC1 [A129, (6-{7-[2-(1-methyl-piperidin-4-yl)-ethoxy]-imidazo[1,2-a]pyridin-3-yl}-pyrimidin-4-yl)-[4-(1-methyl-1H-pyrazol-4-yl)-benzyl]-amine]
10 | 150 | Cn1cc(-c2ccc(CNc3cc(-c4cnc5cc(OCCN6CCCC(F)(F)C6)ccn45)ncn3)cc2)cn1 [A136, 6-{7-[2-(3,3-difluoropiperidin-1-yl)ethoxy]imidazo[1,2-a]pyridin-3-yl}-N-{[4-(1-methyl-1H-pyrazol-4-yl)phenyl]methyl}pyrimidin-4-amine]

Second part, the molecule before the results:

SMILES | IC50 [1] [nM] | IC50 [2] [nM]
CN1CCC(CCOc2ccn3c(-c4cc(NCc5ccc(-c6cnn(C)n6)cc5)ncn4)cnc3c2)C1 (stereo not drawn) [A116, (6-{7-[2-(1-methyl-pyrrolidin-3-yl)-ethoxy]-imidazo[1,2-a]pyridin-3-yl}-pyrimidin-4-yl)-[4-(2-methyl-2H-[1,2,3]triazol-4-yl)-benzyl]-amine] | 1.6 | 48
Cn1ncc(-c2ccc(CNc3cc(-c4cnc5cc(OCCC6CCN(C7COC7)C6)ccn45)ncn3)cc2)n1 (stereo not drawn) [A119, [4-(2-methyl-2H-[1,2,3]triazol-4-yl)-benzyl]-(6-{7-[2-(1-oxetan-3-yl-pyrrolidin-3-yl)-ethoxy]-imidazo[1,2-a]pyridin-3-yl}-pyrimidin-4-yl)-amine] | 3.4 | 62
Cn1cc(-c2ccc(CNc3cc(-c4cnc5cc(OCCC6CCN(C7COC7)C6)ccn45)ncn3)cc2)cn1 (stereo not drawn) [A123, [4-(1-methyl-1H-pyrazol-4-yl)-benzyl]-(6-{7-[2-(1-oxetan-3-yl-pyrrolidin-3-yl)-ethoxy]-imidazo[1,2-a]pyridin-3-yl}-pyrimidin-4-yl)-amine] | 5.8 | 56
Cn1ncc(-c2ccc(CNc3cc(-c4cnc5cc(OCCc6cccnc6)ccn45)ncn3)cc2)n1 [A126, [4-(2-methyl-2H-[1,2,3]triazol-4-yl)-benzyl]-{6-[7-(2-pyridin-3-yl-ethoxy)-imidazo[1,2-a]pyridin-3-yl]-pyrimidin-4-yl}-amine] | 16 | 140
Cn1ncc(-c2ccc(CNc3cc(-c4cnc5cc(OCCN6CC7CC7C6)ccn45)ncn3)cc2)n1 (stereo not drawn) [A128, (6-{7-[2-(3-aza-bicyclo[3.1.0]hex-3-yl)-ethoxy]-imidazo[1,2-a]pyridin-3-yl}-pyrimidin-4-yl)-[4-(2-methyl-2H-[1,2,3]triazol-4-yl)-benzyl]-amine] | 9.9 | 130
CN1CCC(CCOc2ccn3c(-c4cc(NCc5ccc(-c6cnn(C)n6)cc5)ncn4)cnc3c2)CC1 [A130, (6-{7-[2-(1-methyl-piperidin-4-yl)-ethoxy]-imidazo[1,2-a]pyridin-3-yl}-pyrimidin-4-yl)-[4-(2-methyl-2H-[1,2,3]triazol-4-yl)-benzyl]-amine] | 3.5 | 40
CN(C)CCCOc1ccn2c(-c3cc(NCc4ccc(-c5cnn(C)c5)cc4)ncn3)cnc2c1 [A132, {6-[7-(3-dimethylamino-propoxy)-imidazo[1,2-a]pyridin-3-yl]-pyrimidin-4-yl}-[4-(1-methyl-1H-pyrazol-4-yl)-benzyl]-amine] | 5 | 43
Cn1ncc(-c2ccc(CNc3cc(-c4cnc5cc(OCCCO)ccn45)ncn3)cc2)n1 [A134, 3-(3-{6-[4-(2-methyl-2H-[1,2,3]triazol-4-yl)-benzylamino]-pyrimidin-4-yl}-imidazo[1,2-a]pyridin-7-yloxy)-propan-1-ol] | 4.6 | 52
CN(C)CCCOc1ccn2c(-c3cc(NCc4ccc(-c5cnn(C)n5)cc4)ncn3)cnc2c1 [A135, {6-[7-(3-dimethylamino-propoxy)-imidazo[1,2-a]pyridin-3-yl]-pyrimidin-4-yl}-[4-(2-methyl-2H-[1,2,3]triazol-4-yl)-benzyl]-amine] | 2 | 210
CCN(CC)CCCOc1ccn2c(-c3cc(NCc4ccc(-c5cnn(C)c5)cc4)ncn3)cnc2c1 [A137, 6-{7-[3-(diethylamino)propoxy]imidazo[1,2-a]pyridin-3-yl}-N-{[4-(1-methyl-1H-pyrazol-4-yl)phenyl]methyl}pyrimidin-4-amine] | 5.6 | 45
Cn1cc(-c2ccc(CNc3cc(-c4cnc5cc(OCCN6CCS(=O)(=O)CC6)ccn45)ncn3)cc2)cn1 [A138, 4-[2-({3-[6-({[4-(1-methyl-1H-pyrazol-4-yl)phenyl]methyl}amino)pyrimidin-4-yl]imidazo[1,2-a]pyridin-7-yl}oxy)ethyl]-1lambda6-thiomorpholine-1,1-dione] | 6.9 | 64
Cn1cc(-c2ccc(CNc3cc(-c4cnc5cc(OCCN6CC(F)(F)C6)ccn45)ncn3)cc2)cn1 [A139, 6-{7-[2-(3,3-difluoroazetidin-1-yl)ethoxy]imidazo[1,2-a]pyridin-3-yl}-N-{[4-(1-methyl-1H-pyrazol-4-yl)phenyl]methyl}pyrimidin-4-amine] | 9.6 | 160
Cn1cc(-c2ccc(CNc3cc(-c4cnc5cc(OCCCN6CC(F)(F)C6)ccn45)ncn3)cc2)cn1 [A142, 6-{7-[3-(3,3-difluoroazetidin-1-yl)propoxy]imidazo[1,2-a]pyridin-3-yl}-N-{[4-(1-methyl-1H-pyrazol-4-yl)phenyl]methyl}pyrimidin-4-amine] | 7.3 | 65
Cn1cc(-c2ccc(CNc3cc(-c4cnc5cc(OCCCS(C)(=O)=O)ccn45)ncn3)cc2)cn1 [A143, {6-[7-(3-methanesulfonyl-propoxy)-imidazo[1,2-a]pyridin-3-yl]-pyrimidin-4-yl}-[4-(1-methyl-1H-pyrazol-4-yl)-benzyl]-amine] | 21 | 380
Cn1cc(-c2ccc(CNc3cc(-c4cnc5cc(OCCCN6CCCC6=O)ccn45)ncn3)cc2)cn1 [A145, 1-[3-({3-[6-({[4-(1-methyl-1H-pyrazol-4-yl)phenyl]methyl}amino)pyrimidin-4-yl]imidazo[1,2-a]pyridin-7-yl}oxy)propyl]pyrrolidin-2-one] | 41 | 250
Fc1cc(N2CCCC2)ncc1CNc1cc(-c2cnc3ccccn23)ncn1 [A152, (4-fluoro-6-pyrrolidin-1-yl-pyridin-3-ylmethyl)-(6-imidazo[1,2-a]pyridin-3-yl-pyrimidin-4-yl)-amine] | 3.8 | 370
c1ccn2c(-c3cc(NCc4ccc(-c5ncc[nH]5)cc4)ncn3)cnc2c1 [A157, (6-imidazo[1,2-a]pyridin-3-yl-pyrimidin-4-yl)-[4-(1H-imidazol-2-yl)-benzyl]-amine] | 33 | 1500
Cn1cc(-c2ccc(CNc3cc(-c4cnc5cc(O)ccn45)ncn3)cc2)cn1 [A160, 3-[6-({[4-(1-methyl-1H-pyrazol-4-yl)phenyl]methyl}amino)pyrimidin-4-yl]imidazo[1,2-a]pyridin-7-ol] | 38 | 1000
